Laboratory results reported in patent publication US11584712B2, “Alkylamine-substituted perthiocarbamates as dual precursors to hydropersulfide and carbonyl sulfide” (The Johns Hopkins University, priority 2020, dated 2023).

Experiments:
[1] = RSSH generation and quantification of cyclic ureas by UPLC-MS with HPE-IAM or NEM trap; format: physicochemical; conditions: precursor 10 μM, pH 7.4 ammonium bicarbonate buffer; for yield of cyclic urea byproduct: HPE-IAM 500 μM (50 equiv.), 37° C.; for cyclic urea byproduct formation: HPE-IAM 500 μM, 37° C. (7a 15 min, 7c 7 h)
Experimental: Precursor 1a was dissolved in DMSO to afford a 1 mM stock solution. Similarly, HPE-IAM and N-ethyl maleimide (NEM) were independently dissolved in DMSO to obtain 50 mM stock solutions. To a 20 mL scintillation vial, HPE-IAM or NEM (30 μL, 50 mM) was added in pH 7.4 ammonium bicarbonate buffer (2.94 mL) containing the DTPA (100 μM). The resulting solution was pre-incubated at 37° C. for 10 min. Precursor 1a (30 μL, 1 mM) was then added into the mixture and incubated for 15 min at 37° C. An aliquot of the reaction mixture (500 μL) was withdrawn, 4-hydroxyphenylacetamide (10 μM) was added as internal standard, and analyzed using UPLC-MS as follows: Mobile phase: 0-1 min 90% water+0% ACN+10% formic acid (0.1%); 1-7.5 min gradient up to 10% water+80% ACN+10% formic acid (0.1%); 7.5-8.4 min 10% water+80% ACN+10% formic acid (0.1%); 8.4-8.5 min gradient up to 90% water+0% ACN+10% formic acid (0.1%), 8.5-10 min 90% water+0% ACN+10% formic acid (0.1%). Flow rate=0.3 mL/min. […] These studies were conducted at least in triplicate and representative spectra are presented.
Precursors 7a-d (10 μM) were independently incubated with HPE-IAM (500 μM) in pH 7.4 ammonium bicarbonate buffer (50 mM) containing DTPA (100 μM) at 37° C. The reaction mixture (500 μL) was analyzed using UPLC-MS. To quantify 2a-d generated from these precursors, a calibration curve of each individual cyclic urea with known concentrations was independently generated.
Precursor 1a was dissolved in DMSO to afford a 1 mM stock solution. Similarly, HPE-IAM was dissolved in DMSO to obtain a 50 mM stock solution. To a 20 mL scintillation vial, HPE-IAM (30 μL, 50 mM) was added in pH 7.4 ammonium bicarbonate buffer (2.94 mL) containing the DTPA (100 μM). The resulting solution was pre-incubated at 37° C. for 10 min. Precursor 1a (30 μL, 1 mM) was then added into the mixture and incubated for 15 min at 37° C. An aliquot of the reaction mixture (500 μL) was withdrawn and analyzed using UPLC-MS as follows: Mobile phase: 0-1 min 90% water+0% ACN+10% formic acid (0.1%); 1-7.5 min gradient up to 10% water+80% ACN+10% formic acid (0.1%); 7.5-8.4 min 10% water+80% ACN+10% formic acid (0.1%); 8.4-8.5 min gradient up to 90% water+0% ACN+10% formic acid (0.1%), 8.5-10 min 90% water+0% ACN+10% formic acid (0.1%). Flow rate=0.3 mL/min. The mass signals for product of RSSH trapping with HPE-IAM were obtained via deconvolution using MassLynx 4.1 software. These studies were conducted at least in triplicate and representative spectra are presented.
Precursors 7a-d (10 μM) were independently incubated with HPE-IAM (500 μM) in pH 7.4 ammonium bicarbonate buffer (50 mM) containing DTPA (100 μM) at 37° C. This reaction mixture was analyzed by UPLC-MS as follows: Mobile phase: 0-1 min 90% water+0% ACN+10% formic acid (0.1%); 1-7.5 min gradient up to 10% water+80% ACN+10% formic acid (0.1%); 7.5-8.4 min 10% water+80% ACN+10% formic acid (0.1%); 8.4-8.5 min gradient up to 90% water+0% ACN+10% formic acid (0.1%), 8.5-10 min 90% water+0% ACN+10% formic acid (0.1%). Flow rate=0.3 mL/min. To quantify 2a-d generated from these precursors, a calibration curve of each individual cyclic urea with known concentrations was independently generated.

[2] = test system: isolated-perfused murine heart; test: Isolated perfused heart (Langendorff) ischemia-reperfusion, infarct size by TTC staining; conditions: ex vivo mouse heart, 20 min global ischemia, 100 μM infused first 7 min of 90 min reperfusion; KH control 42%
Description: Male C57BL/6J mice obtained from Jackson Laboratories (Bar Harbor, Me., USA) were used for all experiments. Mice were between 12 and 14 weeks of age at the time of experimentation. All animals received humane care in compliance with the “Principles of Laboratory Animal Care” formulated by the National Society for Medical Research and the “Guide for the Care and Use of Laboratory Animals” published by the US National Institutes of Health. The Animal Care and Use Committee from Johns Hopkins University approved of this study.
After anticoagulation with heparin and cervical dislocation, a thoracotomy was performed and the heart was quickly excised and placed in ice-cold Krebs-Henseleit buffer (in mmol/L: 11.1 D-glucose, 1.2 MgSO4, 1.2 KH2PO4, 4.7 KCl, 118 NaCl, 2 CaCl2), 25 NaHCO3). The aorta was cannulated, and the heart was perfused with Krebs-Henseleit buffer (oxygenated with 95% O2/5% CO2 and maintained at pH 7.4) in retrograde fashion at a constant pressure of 80 mm/Hg at 37° C. After baseline equilibration for 20 min, mouse hearts were subjected to 20 min of no-flow global ischemia followed by 90 min of reperfusion. Pharmacological postconditioning with 7b (100 μM) was performed at the onset of reperfusion for 7 min. Hearts were then reperfused for a total of 90 min. Control hearts received no pharmacological postconditioning. […]

Compound	yield of cyclic urea byproduct [1] [%]	cyclic urea byproduct formation [1] [µM]	infarct size [2] [%]
3-(((3-acetamido-4-methoxy-2-methyl-4-oxobutan-2-yl)disulfannecarbonyl)(methyl)amino)-N-methylpropan-1-aminium [Precursor 7c]	88	8.8 ± 0.2	–
CNCCN(C)C(=O)SSC(C)(C)C(NC(C)=O)C(=O)OC (centres unmarked) [Precursor 7a, 2-(((3-acetamido-4-methoxy-2-methyl-4-oxobutan-2-yl)disulfannecarbonyl)(methyl)amino)-N-methylethan-1-aminium]	87	8.7 ± 0.4	–
COC(=O)C(NC(C)=O)C(C)(C)SSC(=O)N(C)CCN (centres unmarked) [Precursor 7b, 2-(((3-acetamido-4-methoxy-2-methyl-4-oxobutan-2-yl)disulfannecarbonyl)(methyl)amino)ethan-1-aminium]	–	–	16
